According to ChEMBL document CHEMBL4145514, “Unexplored antifungal activity of linear battacin lipopeptides against planktonic and mature biofilms of C. albicans” (Eur J Med Chem, 2018):
≈ marks a conversion by molar mass, not a printed value. Blank lines part the entries; values can stand above or below the compound they belong to. Calls of active or inactive are those of the source. No cut-off for these calls is given here. Bridge positions count the residues as written; N and C are the ends. Square brackets hold non-standard residues; d marks the D form. Peptide text beside a SMILES is read from it. * marks the point of attachment. ξ: configuration not given here. Hexanoyl(4ξ-Me) = CCC(C)CCC(=O)*; X2 = CC(C)=CCC/C(C)=C/C(=O)*; X3 = CC[C@H](C)CCCCC(=O)*; dDab = NCC[C@@H](N)C(=O)O; Dab = NCC[C@H](N)C(=O)O

Assays:
Candida albicans [1] = assay: Antifungal activity against Candida albicans SC5314 after 48 hrs; format: functional; conditions: SC5314, 48 h
Candida albicans [2] = assay: Synergistic antifungal activity against Candida albicans SC5314 after 48 hrs in presence of 400 nmol AmB; format: functional; conditions: SC5314, 48 h
Candida albicans [3] = assay: Synergistic antifungal activity against Candida albicans SC5314 assessed as FIC index after 48 hrs in presence of 400 nmol AmB; format: functional
Candida albicans [4] = assay: Synergistic antifungal activity against Candida albicans SC5314 after 48 hrs in presence of 800 nmol AmB; format: functional; conditions: SC5314, 48 h
Candida albicans [5] = assay: Synergistic antifungal activity against Candida albicans SC5314 assessed as FIC index after 48 hrs in presence of 800 nmol AmB; format: functional
Candida albicans [6] = assay: Ratio of MIC for Candida albicans SC5314 to MIC for Candida albicans SC5314 in presence of 400 nmol AmB; format: functional
Candida albicans [7] = assay: Ratio of MIC for Candida albicans SC5314 to MIC for Candida albicans SC5314 in presence of 800 nmol AmB; format: functional
Candida albicans [8] = assay: Antibiofilm activity against Candida albicans SC5314 incubated for overnight by XTT assay; format: functional
Candida albicans [9] = assay: Induction of eradication of 24 hrs old preformed Candida albicans SC5314 biofilm after 24 to 48 hrs by XTT assay; format: functional
Candida albicans [10] = assay: Induction of eradication of 48 hrs old preformed Candida albicans SC5314 biofilm at 62.5 uM after 24 to 48 hrs by XTT assay; format: functional, organism-based
[11] = Haemolytic activity in mouse RBC at 1 mM incubated for 1 hr relative to control; format: ADME, cell-based, Erythrocyte; conditions: mouse red blood cells (erythrocytes), read-out: Activity
Candida albicans [12] = assay: Induction of morphological changes in Candida albicans SC5314 assessed as formation of distorted shape cells at MIC after 45 mins by Uranyl acetate/Lead citrate staining based transmission electron microscopic analysis; format: functional, organism-based
Candida albicans [13] = assay: Induction of morphological changes in Candida albicans SC5314 assessed as formation of abnormal curvature of cell membranes at MIC after 45 mins by Uranyl acetate/Lead citrate staining based transmission electron microscopic analysis; format: functional, organism-based
Candida albicans [14] = assay: Induction of morphological changes in Candida albicans SC5314 assessed as disruption of fungal cell walls at 10 times MIC after 45 mins by Uranyl acetate/Lead citrate staining based transmission electron microscopic analysis; format: functional, organism-based
Candida albicans [15] = assay: Induction of morphological changes in Candida albicans SC5314 assessed as disruption of fungal cell membranes at 10 times MIC after 45 mins by Uranyl acetate/Lead citrate staining based transmission electron microscopic analysis; format: functional, organism-based
Candida albicans [16] = assay: Induction of morphological changes in Candida albicans SC5314 assessed as necrosis of cytoplasm at 10 times MIC after 45 mins by Uranyl acetate/Lead citrate staining based transmission electron microscopic analysis; format: functional, organism-based
Candida albicans [17] = assay: Induction of ROS generation in Candida albicans SC5314 after 24 to 48 hrs by DCF-DA staining based fluorescence assay; format: functional, organism-based
Candida albicans [18] = assay: Induction of ROS generation in Candida albicans SC5314 at 0.2 to 100 uM after 24 to 48 hrs in presence of ascorbic acid by DCF-DA staining based fluorescence assay; format: functional, organism-based
Candida albicans [19] = assay: Ratio of MBEC50 for 24 hrs old preformed Candida albicans SC5314 biofilm to MIC for Candida albicans SC5314; format: functional
Candida albicans [20] = assay: Induction of eradication of 48 hrs old preformed Candida albicans SC5314 biofilm up to 125 uM after 24 to 48 hrs by XTT assay; format: functional, organism-based
[21] = Haemolytic activity in mouse RBC at 6 uM incubated for 1 hr relative to control; format: ADME, cell-based, Erythrocyte; conditions: mouse red blood cells (erythrocytes), read-out: Activity
Candida albicans [22] = assay: Induction of morphological changes in Candida albicans SC5314 assessed as disruption of fungal cell walls at 0.5 to 10 times MIC after 45 mins by Uranyl acetate/Lead citrate staining based transmission electron microscopic analysis; format: functional, organism-based
Candida albicans [23] = assay: Induction of morphological changes in Candida albicans SC5314 assessed as disruption of fungal cell membranes at 0.5 to 10 times MIC after 45 mins by Uranyl acetate/Lead citrate staining based transmission electron microscopic analysis; format: functional, organism-based
Candida albicans [24] = assay: Induction of morphological changes in Candida albicans SC5314 assessed as necrosis of cytoplasm at 0.5 to 10 times MIC after 45 mins by Uranyl acetate/Lead citrate staining based transmission electron microscopic analysis; format: functional, organism-based
Candida albicans [25] = assay: Potency index, ratio of MIC for polymyxin B to compound MIC for antifungal activity against Candida albicans SC5314; format: functional
Lipid bilayer = assay: Disruption of phosphatidylcholine/ phosphatidylinositol/phosphatidylethanolamine membrane at 200 uM by colorimetric assay

Structure (SMILES): CCC(C)CCC(=O)N[C@H](CCN)C(=O)N[C@@H](CCN)C(=O)N[C@@H](CC(C)C)C(=O)N[C@H](Cc1ccccc1)C(=O)N[C@@H](CCN)C(N)=O (some centres undefined) ({Hexanoyl(4ξ-Me)}-[dDab][Dab]L[dF][Dab]-NH2)
- MIC (Candida albicans [1]): > 100 µM

Structure (SMILES): CC[C@H](C)CCCCC(=O)N[C@@H](CCN)C(=O)N[C@H](C(=O)N[C@@H](CCN)C(=O)N[C@H]1CCNC(=O)[C@H]([C@@H](C)O)NC(=O)[C@H](CCN)NC(=O)[C@H](CCN)NC(=O)[C@H](CC(C)C)NC(=O)[C@@H](Cc2ccccc2)NC(=O)[C@H](CCN)NC1=O)[C@@H](C)O (X3-[Dab]T[Dab][Dab][Dab][dF]L[Dab][Dab]T; lactam 4-C)
- MIC (Candida albicans [1]): > 100 µM

Structure (SMILES): CCC(C)CCC(=O)N[C@H](CCN)C(=O)N[C@@H](CCN)C(=O)N[C@@H](CCN)C(=O)N[C@@H](CC(C)C)C(=O)N[C@H](Cc1ccccc1)C(=O)N[C@@H](CCN)C(=O)N[C@@H](CCN)C(=O)N[C@@H](CC(C)C)C(N)=O (stereo partly drawn) ({Hexanoyl(4ξ-Me)}-[dDab][Dab][Dab]L[dF][Dab][Dab]L-NH2)
- MIC (Candida albicans [1]): 50 µM (≈ 50.2 µg/mL)
- Ratio (Candida albicans [25]): 2
- MIC (Candida albicans [2]): 12.5 µM
- fractional inhibitory concentration index (FICI) (Candida albicans [3]): 8.26
- MIC (Candida albicans [4]): 1.56 µM
- fractional inhibitory concentration index (FICI) (Candida albicans [5]): 1.03
- Ratio (Candida albicans [6]): 4
- Ratio (Candida albicans [7]): 8 - 32

Structure (SMILES): CC(C)C[C@H](NC(=O)[C@H](CCN)NC(=O)[C@H](CCN)NC(=O)[C@@H](Cc1ccccc1)NC(=O)[C@H](CC(C)C)NC(=O)[C@H](CCN)NC(=O)[C@H](CCN)NC(=O)[C@H](N)CCN)C(N)=O (H-[dDab][Dab][Dab]L[dF][Dab][Dab]L-NH2)
- MIC (Candida albicans [1]): > 100 µM

Structure (SMILES): CC(=O)N[C@H](CCN)C(=O)N[C@@H](CCN)C(=O)N[C@@H](CCN)C(=O)N[C@@H](CC(C)C)C(=O)N[C@H](Cc1ccccc1)C(=O)N[C@@H](CCN)C(=O)N[C@@H](CCN)C(=O)N[C@@H](CC(C)C)C(N)=O
- MIC (Candida albicans [1]): > 100 µM
- Activity (Lipid bilayer): inactive

Structure (SMILES): CCCC(=O)N[C@H](CCN)C(=O)N[C@@H](CCN)C(=O)N[C@@H](CCN)C(=O)N[C@@H](CC(C)C)C(=O)N[C@H](Cc1ccccc1)C(=O)N[C@@H](CCN)C(=O)N[C@@H](CCN)C(=O)N[C@@H](CC(C)C)C(N)=O
- MIC (Candida albicans [1]): > 100 µM
- Activity (Lipid bilayer): inactive

Second part, led by results:

- MIC (Candida albicans [1]): 6.25 µM (≈ 17.2 µg/mL)
- MIC (Candida albicans [2]): 1.56 µM
- MIC (Candida albicans [4]): 0.78 µM
Structure (SMILES): CCC(C)CCC(=O)N[C@H](CCN)C(=O)N[C@@H](CCN)C(=O)N[C@@H](CCN)C(=O)N[C@@H](CC(C)C)C(=O)N[C@H](Cc1ccccc1)C(=O)N[C@@H](CCN)C(=O)N[C@@H](CCN)C(=O)N[C@@H](CC(C)C)C(=O)N[C@H](CCN)C(=O)N[C@@H](CCN)C(=O)N[C@@H](CCN)C(=O)N[C@@H](CC(C)C)C(=O)N[C@H](Cc1ccccc1)C(=O)N[C@@H](CCN)C(=O)N[C@@H](CCN)C(=O)N[C@@H](CC(C)C)C(=O)N[C@H](CCN)C(=O)N[C@@H](CCN)C(=O)N[C@@H](CCN)C(=O)N[C@@H](CC(C)C)C(=O)N[C@H](Cc1ccccc1)C(=O)N[C@@H](CCN)C(=O)N[C@@H](CCN)C(=O)N[C@@H](CC(C)C)C(N)=O (some centres undefined)
- fractional inhibitory concentration index (FICI) (Candida albicans [3]): 1.25
- fractional inhibitory concentration index (FICI) (Candida albicans [5]): 0.62
- Ratio (Candida albicans [6]): 4
- Ratio (Candida albicans [7]): 8 - 32
- MBIC50 (Candida albicans [8]): 6.25 µM
- MBEC50 (Candida albicans [9]): 25 µM
- Activity (Candida albicans [10]): Active
- hemolysis at 1 h, 1000 µM [11]: 21%
- Activity (Candida albicans [12]): Active
- Activity (Candida albicans [13]): Active
- Activity (Candida albicans [14]): Active
- Activity (Candida albicans [15]): Active
- Activity (Candida albicans [16]): Active
- Activity (Candida albicans [17]): Dose-dependent effect
- Activity (Candida albicans [18]): inactive
- Ratio (Candida albicans [19]): 4

- MIC (Candida albicans [1]): 1.56 µM (≈ 1.44 µg/mL)
Structure (SMILES): C[C@@H]1[C@H](O)[C@@H](C)/C=C/C=C/C=C/C=C/C=C/C=C/C=C/[C@H](O[C@@H]2O[C@H](C)[C@@H](O)[C@H](N)[C@@H]2O)C[C@@H]2O[C@](O)(C[C@@H](O)C[C@@H](O)[C@H](O)CC[C@@H](O)C[C@@H](O)CC(=O)O[C@H]1C)C[C@H](O)[C@H]2C(=O)O [AMPHOTERICIN B]
- MBIC50 (Candida albicans [8]): 0.78 µM
- MBEC50 (Candida albicans [9]): 6.25 µM
- Activity (Candida albicans [20]): inactive
- hemolysis at 1 h, 6 µM [21]: 50%
- Activity (Candida albicans [22]): Active
- Activity (Candida albicans [23]): Active
- Activity (Candida albicans [24]): Active

- MIC (Candida albicans [1]): 50 µM (≈ 52.1 µg/mL)
Structure (SMILES): CC(C)=CCC/C(C)=C/C(=O)N[C@H](CCN)C(=O)N[C@@H](CCN)C(=O)N[C@@H](CCN)C(=O)N[C@@H](CC(C)C)C(=O)N[C@H](Cc1ccccc1)C(=O)N[C@@H](CCN)C(=O)N[C@@H](CCN)C(=O)N[C@@H](CC(C)C)C(N)=O (X2-[dDab][Dab][Dab]L[dF][Dab][Dab]L-NH2)

- MIC (Candida albicans [1]): 12.5 µM (≈ 13.9 µg/mL)
Structure (SMILES): CC(C)C[C@H](NC(=O)[C@H](CCN)NC(=O)[C@H](CCN)NC(=O)[C@@H](Cc1ccccc1)NC(=O)[C@H](CC(C)C)NC(=O)[C@H](CCN)NC(=O)[C@H](CCN)NC(=O)[C@@H](CCN)NC(=O)OCC1c2ccccc2-c2ccccc21)C(N)=O
